{"source": "ChEMBL document CHEMBL1201862", "about": "“PubChem BioAssay data set” (2004)", "key": {"P388/ADR": {"tested_on": "P388/ADR", "experiment": "cells", "assay_type": "functional"}, "SN12K1": {"tested_on": "SN12K1", "experiment": "cells", "assay_type": "functional"}, "P388": {"tested_on": "P388", "experiment": "cells", "assay_type": "functional"}, "[1]": {"target": "T1, Carboxy-terminal domain RNA polymerase II polypeptide A small phosphatase 1 (Homo sapiens, UniProt Q9GZU7)", "T1 sequence (Q9GZU7 whole entry)": "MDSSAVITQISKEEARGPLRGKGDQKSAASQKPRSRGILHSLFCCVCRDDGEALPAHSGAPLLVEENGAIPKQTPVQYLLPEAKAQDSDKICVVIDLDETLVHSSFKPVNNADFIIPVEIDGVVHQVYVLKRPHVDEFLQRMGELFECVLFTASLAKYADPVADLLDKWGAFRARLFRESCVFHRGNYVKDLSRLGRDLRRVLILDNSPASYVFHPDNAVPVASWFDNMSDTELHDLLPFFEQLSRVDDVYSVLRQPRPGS", "experiment": "CTDSP1 inhibitors, concentration-response, biochemical, absorbance readout, ultra-high-throughput screen actives (AID 540297)", "assay_type": "functional"}, "[2]": {"experiment": "Trypanosoma cruzi growth suppression in host cells – NIH3T3 host cells, beta-gal luminescence, confirmation (AID 2044);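 further: intracellular parasites grown in NIH/3T3 mouse fibroblasts as host cells; luminescent beta-galactosidase reporter signal from transgenic T. cruzi replicating inside host cells; inhibitors lower the luminescence signal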", "assay_type": "functional, cell-based"}, "[3]": {"experiment": "NIH3T3 cell viability loss – ATP luminescence, mouse fibroblasts, counter-screen, dose response (AID 2010);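 further: cells exposed to compound for about 90 hours before reading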", "assay_type": "functional, cell-based"}, "[4]": {"experiment": "Luminescence Cell-Based Dose Retest to Confirm Inhibitors of Cancer Stem Cells. [Related pubchem assays (depositor defined):AID2717, AID2721]", "assay_type": "functional", "settings": "Homo sapiens"}, "[5]": {"experiment": "reduction of Shn3 3'UTR-driven luciferase in osteoblasts – cell-based, Clone20 osteoblasts, firefly luciferase, cherry-picked, dose response (AID 624132)", "assay_type": "functional"}, "[6]": {"experiment": "loss of viability in HepG2 cells – cell-based, CellTiter-Glo, cherry-picked, cytotoxicity control for Shn3 inhibitor project, dose response (AID 624134)", "assay_type": "functional"}, "[7]": {"experiment": "non-specific 3'UTR reporter inhibition in Clone20-Shn3RL – cell-based, Renilla luciferase, cherry-picked, counter-screen for Shn3 inhibitor project, dose response (AID 624133)", "assay_type": "functional"}, "[8]": {"experiment": "HEK-293T viability loss after treatment – luminescence, T-cell screen hits, cytotoxicity control for TCR NF-kB inhibitor project, dose response (AID 489026);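 further: cells exposed to compound about 14 hours before the viability readout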", "assay_type": "functional, cell-based"}, "[9]": {"target": "Luciferin 4-monooxygenase (Photinus pyralis, UniProt P08659)", "sequence (P08659 whole entry)": "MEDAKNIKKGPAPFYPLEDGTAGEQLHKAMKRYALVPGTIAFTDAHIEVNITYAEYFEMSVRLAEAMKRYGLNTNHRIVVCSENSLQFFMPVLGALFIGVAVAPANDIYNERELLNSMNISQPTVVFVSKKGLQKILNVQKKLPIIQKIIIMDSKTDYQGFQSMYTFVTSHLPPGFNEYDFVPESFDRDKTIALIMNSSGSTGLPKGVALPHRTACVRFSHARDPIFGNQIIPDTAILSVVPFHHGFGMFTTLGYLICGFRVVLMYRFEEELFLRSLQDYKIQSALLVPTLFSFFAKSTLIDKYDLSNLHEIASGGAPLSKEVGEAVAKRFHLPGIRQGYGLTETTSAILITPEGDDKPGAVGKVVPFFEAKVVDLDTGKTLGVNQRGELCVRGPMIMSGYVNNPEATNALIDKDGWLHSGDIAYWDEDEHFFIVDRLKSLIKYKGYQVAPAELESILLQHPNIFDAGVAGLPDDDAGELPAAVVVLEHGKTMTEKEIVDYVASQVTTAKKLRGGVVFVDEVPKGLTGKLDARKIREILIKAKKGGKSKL", "experiment": "inhibition of purified Photinus pyralis luciferase – biochemical, luminescence, dose response (AID 1891)"}, "[10]": {"experiment": "Luminescence Cell-Based Dose Confirmation HTS to Identify Inhibitors of Platelet Dense Granule Release. [Related pubchem assays: 1663 (Primary HTS), 1678 (Summary of Project)]", "assay_type": "functional"}, "[11]": {"target": "T2, Replicative DNA helicase DnaB (Mycobacterium tuberculosis, UniProt P9WMR3)", "T2 sequence (P9WMR3 whole entry)": "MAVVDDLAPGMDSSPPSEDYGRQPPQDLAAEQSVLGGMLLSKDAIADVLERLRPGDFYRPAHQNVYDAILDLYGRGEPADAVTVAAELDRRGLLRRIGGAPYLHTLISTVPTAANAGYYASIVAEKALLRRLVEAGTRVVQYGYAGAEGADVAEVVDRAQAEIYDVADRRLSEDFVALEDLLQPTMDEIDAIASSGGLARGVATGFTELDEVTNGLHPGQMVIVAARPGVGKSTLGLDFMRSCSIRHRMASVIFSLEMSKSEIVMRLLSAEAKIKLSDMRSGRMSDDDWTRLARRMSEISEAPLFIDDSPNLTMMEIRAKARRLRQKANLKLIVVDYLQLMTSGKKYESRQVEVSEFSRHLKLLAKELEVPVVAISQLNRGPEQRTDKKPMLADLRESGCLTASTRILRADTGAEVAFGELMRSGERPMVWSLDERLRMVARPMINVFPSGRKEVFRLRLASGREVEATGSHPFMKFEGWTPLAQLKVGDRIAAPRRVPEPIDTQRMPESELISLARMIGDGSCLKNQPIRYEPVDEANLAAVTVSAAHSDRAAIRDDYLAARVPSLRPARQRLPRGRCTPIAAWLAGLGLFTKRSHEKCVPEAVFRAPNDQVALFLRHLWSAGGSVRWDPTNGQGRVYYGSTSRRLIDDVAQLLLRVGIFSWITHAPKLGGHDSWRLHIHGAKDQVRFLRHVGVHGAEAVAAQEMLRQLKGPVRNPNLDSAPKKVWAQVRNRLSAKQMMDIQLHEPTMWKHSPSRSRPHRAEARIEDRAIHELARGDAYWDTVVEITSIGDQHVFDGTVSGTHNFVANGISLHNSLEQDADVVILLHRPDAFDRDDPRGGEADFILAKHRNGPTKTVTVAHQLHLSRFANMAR", "experiment": "DnaB intein splicing inhibitors, dose response, biochemical, cell-free fluorescence (AID 449749)", "assay_type": "functional"}, "Protein RecA": {"target": "T3, Protein RecA (Mycobacterium tuberculosis, UniProt P9WHJ3)", "T3 sequence (P9WHJ3 whole entry)": "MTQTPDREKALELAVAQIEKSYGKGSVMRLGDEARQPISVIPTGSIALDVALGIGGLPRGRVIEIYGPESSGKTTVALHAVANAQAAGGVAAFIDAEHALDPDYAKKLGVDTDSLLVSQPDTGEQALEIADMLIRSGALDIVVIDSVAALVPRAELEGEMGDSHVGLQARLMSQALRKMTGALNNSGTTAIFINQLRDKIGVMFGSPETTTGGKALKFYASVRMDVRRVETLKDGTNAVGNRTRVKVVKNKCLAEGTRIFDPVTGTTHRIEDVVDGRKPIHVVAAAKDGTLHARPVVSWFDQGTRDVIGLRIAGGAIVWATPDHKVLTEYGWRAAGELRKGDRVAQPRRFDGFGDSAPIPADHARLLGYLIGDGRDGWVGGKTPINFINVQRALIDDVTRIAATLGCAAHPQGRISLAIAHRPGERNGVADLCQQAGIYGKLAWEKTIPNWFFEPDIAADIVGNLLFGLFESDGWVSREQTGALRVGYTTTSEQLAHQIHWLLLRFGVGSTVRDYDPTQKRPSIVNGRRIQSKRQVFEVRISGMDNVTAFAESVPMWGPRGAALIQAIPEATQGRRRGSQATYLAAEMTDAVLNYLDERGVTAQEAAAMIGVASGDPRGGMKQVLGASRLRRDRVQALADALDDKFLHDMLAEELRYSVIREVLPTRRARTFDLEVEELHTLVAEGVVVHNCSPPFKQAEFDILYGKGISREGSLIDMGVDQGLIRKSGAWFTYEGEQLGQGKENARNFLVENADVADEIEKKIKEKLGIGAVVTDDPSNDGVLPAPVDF", "experiment": "Fluorescence Cell-Free Homogeneous Dose Retest to Identify Inhibitors of RecA-Intein Splicing Activity. [Related pubchem assays (depositor defined):AID2097, AID2223, AID489010, AID492950]", "assay_type": "functional"}}, "note": "Active and inactive are the calls of the source."}
{"compound": "O=C1CNC(=O)N1", "note": "[HYDANTOIN]", "values": [{"measurement": "GI50", "setting": "P388/ADR; Mus musculus, P388/ADR", "result": "706 µM (inactive)"}, {"measurement": "GI50", "setting": "SN12K1; Homo sapiens, SN12K1", "result": "> 1120 µM (inactive)"}, {"measurement": "GI50", "setting": "P388; Mus musculus, P388", "result": "630 µM (inactive)"}]}
{"compound": "COc1ccc(C(=O)NCC(=O)Nc2ccc(-c3ccccc3)cc2)cc1", "values": [{"measurement": "IC50", "setting": "[1]", "result": "5.62 µM (active)"}]}
{"compound": "CCOC(=O)NC(=O)c1cn(CCN(CCO)C(=O)NCCCCCCNC(=O)N(CCO)CCn2cc(C(=O)NC(=O)OCC)c(=O)[nH]c2=O)c(=O)[nH]c1=O", "values": [{"measurement": "GI50", "setting": "P388/ADR; Mus musculus, P388/ADR", "result": "> 100 µM (inactive)"}, {"measurement": "GI50", "setting": "SN12K1; Homo sapiens, SN12K1", "result": "> 100 µM (inactive)"}, {"measurement": "GI50", "setting": "P388; Mus musculus, P388", "result": "> 100 µM (inactive)"}]}
{"compound": "CCn1cc(C(=O)NCc2ccco2)c(=O)c2cc(F)c(N3CCN(C(=O)c4ccco4)CC3)cc21", "values": [{"measurement": "IC50", "setting": "[1]", "result": "17.6 µM (active)"}]}
{"compound": "O=C(Nc1nc2ccccc2s1)C1CCN(S(=O)(=O)c2cc([N+](=O)[O-])ccc2Cl)CC1", "values": [{"measurement": "EC50", "setting": "[2]", "result": "0.713 µM (active)"}, {"measurement": "EC50", "setting": "[3]", "result": "> 60 µM (not active)"}, {"measurement": "AC50", "setting": "[4]", "result": "25 µM (active)"}, {"measurement": "IC50", "setting": "[1]", "result": "3.28 µM (active)"}, {"measurement": "AC50", "setting": "[5]", "result": "3.07 µM (active)"}, {"measurement": "AC50", "setting": "[6]", "result": "50.7 µM (active)"}, {"measurement": "AC50", "setting": "[7]", "result": "2.18 µM (active)"}]}
{"compound": "CC(Oc1ccc(Cl)cc1Cl)c1nc(-c2ccc(NC(=O)c3ccncc3)cc2)no1", "note": "(centres undefined)", "values": [{"measurement": "EC50", "setting": "[2]", "result": "1.46 µM (active)"}, {"measurement": "EC50", "setting": "[3]", "result": "> 60 µM (not active)"}, {"measurement": "IC50", "setting": "[8]", "result": "> 80 µM (inactive)"}, {"measurement": "AC50", "setting": "[5]", "result": "3.93 µM (active)"}, {"measurement": "AC50", "setting": "[6]", "result": "6.83 µM (active)"}, {"measurement": "AC50", "setting": "[7]", "result": "21.7 µM (active)"}]}
{"compound": "CCCCCCc1ccc(O)cc1O", "note": "[HEXYLRESORCINOL]", "values": [{"measurement": "EC50", "setting": "[2]", "result": "0.781 µM (active)"}, {"measurement": "EC50", "setting": "[3]", "result": "> 30 µM (not active)"}, {"measurement": "GI50", "setting": "P388/ADR; Mus musculus, P388/ADR", "result": "45.2 µM (inactive)"}, {"measurement": "GI50", "setting": "SN12K1; Homo sapiens, SN12K1", "result": "37.5 µM (inactive)"}, {"measurement": "GI50", "setting": "P388; Mus musculus, P388", "result": "48.4 µM (inactive)"}]}
{"compound": "Cc1c2cc[n+](C)cc2c(C)c2c1[nH]c1ccccc12", "values": [{"measurement": "GI50", "setting": "P388/ADR", "result": "70 µM (inactive)"}, {"measurement": "GI50", "setting": "SN12K1", "result": "0.385 µM (active)"}, {"measurement": "GI50", "setting": "P388", "result": "1.12 µM (inactive)"}]}
{"compound": "CNCCNc1ccc2c3c(nn2CCNCCO)-c2c(O)ccc(O)c2C(=O)c13", "values": [{"measurement": "GI50", "setting": "P388/ADR; Mus musculus, P388/ADR", "result": "0.216 µM (active)"}, {"measurement": "GI50", "setting": "SN12K1; Homo sapiens, SN12K1", "result": "0.0673 µM (active)"}, {"measurement": "GI50", "setting": "P388; Mus musculus, P388", "result": "0.000867 µM (active)"}]}
{"compound": "COc1ccc(NC(=O)CSc2c3c(nc4cc(Cl)ccc24)CCCC3)cc1OC", "values": [{"measurement": "EC50", "setting": "[9]", "result": "> 112 µM (not active)"}, {"measurement": "EC50", "setting": "[10]", "result": "> 112 µM (not active)"}, {"measurement": "AC50", "setting": "[11]", "result": "8.17 µM (active)"}, {"measurement": "EC50", "setting": "Protein RecA", "result": "3.1 µM (active)"}]}
{"compound": "Nc1ccn(C2CCC(CO)O2)c(=O)n1", "note": "(centres undefined)", "values": [{"measurement": "GI50", "setting": "P388/ADR; Mus musculus, P388/ADR", "result": "> 80.4 µM (inactive)"}, {"measurement": "GI50", "setting": "SN12K1; Homo sapiens, SN12K1", "result": "> 100 µM (inactive)"}, {"measurement": "GI50", "setting": "P388; Mus musculus, P388", "result": "> 100 µM (inactive)"}]}
